Test results published in patent publication US6528535B2, “Bicyclic inhibitors of protein farnesyl transferase” (Warner-Lambert Company, priority 1997, dated 2003).
Where a name gives a salt, the structure may show the parent alone. Read-outs that look alike come from different tables or passages of the source.

How the values were obtained:
[1] = molecular target: T1, SF9 affinity purified rat FPT (Rattus norvegicus, UniProt Q02293+Q04631); experiment: PFT (farnesyl protein transferase) inhibitory activity, radiolabeled farnesyl pyrophosphate / biotinyl peptide bead assay; type: biochemical; conditions: read-out: FTase, IC50
T1 construct: made in house; host or cells: Sf9 insect cells
Experimental: The protein:farnesyl transferase (PFT) or farnesyl protein transferase (FPT) inhibitory activity of compounds of the present invention were assayed in HEPES buffer (pH 7.4) containing 5 mM potassium phosphate and 20 μM ZnCl2. The solution also contained 5 mM DTT (dithiothreitol), 5 mM MgCl2, and 0.1% PEG 8000. Assays were performed in 96 well plates (Wallec) and employed solutions composed of varying concentrations of a compound of the present invention in 10% DMSO (dimethylsulfoxide). Upon addition of both substrates, radiolabeled farnesyl pyrophosphate ([1^3H], specific activity 15-30 Ci/mmol, final concentration 134 nM) and (biotinyl)-Ahe-Thr-Lys-Cys-Val-Ile-Met ([3aS[3a alpha, 4 beta, 6a alpha]-hexahydro-2-oxo-1H-thieno[3,4-d]imidazole-5-pentanoic acid]-[7-aminoheptanoic acid]-Thr-Lys-Cys-Val-Ile-Met) (Ahe is 7-aminoheptanoic acid, Thr is threonine, Lys is lysine, Cys is cysteine, Val is valine, Ile is isoleucine, and Met is methionine) (final concentration 0.2 μM), the enzyme reaction was started by addition of SF9 affinity purified rat FPT. After incubation at 30° C. for 30 minutes, the reaction was terminated by diluting the reaction 2.5-fold with a stop buffer containing 1.5 M magnesium acetate, 0.2 M H3PO4, 0.5% BSA (bovine serum albumin), and strepavidin beads (Amersham) at a concentration of 1.3 mg/mL. After allowing the plate to settle for 30 minutes at room temperature, radioactivity was quantitated on a microbeta counter (Model 1450, Wallec). The assay was also carried out without 5 mM potassium phosphate.

[2] = average of two tests unless n is given in parentheses

melting point [°C]	IC50 [1, 2] [nM]	IC50 ([1]; Examples 56-74, parallel synthesis array: single test, values adjusted to account for the purity of the sample) [nM]	Structure (SMILES)
53 to 56	890	–	O=C1C(=Cc2ccccc2)CCc2cc(OCCc3c[nH]cn3)ccc21 [Example 30, 2-Benzylidene-6-[2-(1H-imidazole-4-yl)-ethoxy]-3,4-dihydro-2H-naphthalen-1-one]
161 to 161.5	78	–	CSc1ccc(C=C2CCc3cc(OCCn4ccnc4)ccc3C2=O)cc1 [Example 4]
177 to 179	3000	–	ON=C1CCCc2cc(OCCn3ccnc3)ccc21 [Example 53, 6-[2-(1H-1-Imidazolyl)ethoxyl]-1,2,3,4-tetrahydro-1-naphthalenone oxime]
211 to 213	12200	–	CCN(CC)C(=O)c1ccc(C=C2CCc3cc(OCCc4c[nH]cn4)ccc3C2=O)cc1.Cl [Example 34, N,N-Diethyl-4-{6-[2-(1H-imidazole-4-yl)-ethoxy]-1-oxo-3,4-dihydro-1H-naphthalen-2-ylidenemethyl}-benzamide, monohydrochloride]
150 to 151	15400	–	Cc1cc2c(cc1OCCn1ccnc1)CC/C(=C\c1cccs1)C2=O [Example 46, 6-[2-(1H-1-Imidazolyl)ethoxy]-7-methyl-2-[(E)-1-(2-thienyl)methylidene]-1,2,3,4-tetrahydro-1-naphthalenone]
132 to 135	2600	–	CC(COc1ccc2c(c1)CCCC2=O)n1ccnc1 (stereo not drawn) [Example 78, 6-[2-(1H-1-Imidazolyl)propoxy]-1,2,3,4-tetrahydro-1-naphthalenone]
191 to 193	3100	–	Cc1ccsc1C=C1CCc2cc(OCCc3c[nH]cn3)ccc2C1=O [Example 39, 6-[2-(1H-Imidazole-4-yl)-ethoxy]-2-(3-methyl-thiophen-2-ylmethylene)-3,4-dihydro-2H-naphthalen-1-one]
139 to 140	120	–	O=C1CC(c2ccccc2)Oc2cc(OCCn3ccnc3)ccc21 (stereo not drawn) [Example 76, 7-[2-(1H-1-Imidazolyl)ethoxy]-2-phenyl-4-chromanone]
128 to 130	4400	–	O=C1CCOc2cc(OCCn3ccnc3)ccc21 [Example 51, 7-[2-(1H-1-Imidazolyl)ethoxy]-4-chromanone]
168 to 169	9100	–	CSc1ccc(C=C2CCc3cc(OCCc4c[nH]cn4)ccc3C2=O)s1.Cl [Example 32, 6-[2-(1H-Imidazole-4-yl)-ethoxy]-2-(5-methylsulfanyl-thiophen-2-ylmethylene)-3,4-dihydro-2H-naphthalen-1-one, monohydrochloride]
198 to 200	3600	–	O=C1/C(=C/C=C/c2ccccc2)CCc2cc(OCCn3ccnc3)ccc21 [Example 44, (E,E)-6-(2-Imidazol-1-yl-ethoxy)-2-(3-phenyl-allylidene)-3,4-dihydro-2H-naphthalen-1-one]
60 to 63	88	–	O=C1C(=Cc2cccs2)CCc2cc(OCCc3c[nH]cn3)ccc21 [Example 29, 6-[2-(1H-Imidazole-4-yl)-ethoxy]-2-thiophen-2-ylmethylene-3,4-dihydro-2H-naphthalen-1-one]
94 to 96	170	–	O=C1C(=Cc2ccsc2)CCc2cc(OCCc3c[nH]cn3)ccc21 [Example 28, 6-[2-(1H-Imidazole-4-yl)-ethoxy]-2-thiophen-3-ylmethylene-3,4-dihydro-2H-naphthalen-1-one]
164 to 166	100	–	O=C1C(=Cc2cc(Br)cs2)CCc2cc(OCCn3ccnc3)ccc21 [Example 17, 2-(4-Bromo-thiophen-2-ylmethylene)-6-(2-imidazole-1-yl-ethoxy)-3,4-dihydro-2H-naphthalen-1-one]
128.5 to 129	1260	–	O=C1C(=Cc2ccncc2)CCc2cc(OCCn3ccnc3)ccc21 [Example 6, 6-(2-Imidazole-1-yl-ethoxy)-2-pyridin-4-ylmethylene-3,4-dihydro-2H-naphthalen-1-one]
132 to 133	880	–	COc1ccc(C=C2CCc3cc(OCCn4ccnc4)ccc3C2=O)cc1 [Example 24, 6-(2-Imidazole-1-yl-ethoxy)-2-(4-methoxy-benzylidene)-3,4-dihydro-2H-naphthalen-1-one]

melting point [°C]	IC50 [1, 2] [nM]	IC50 ([1]; Examples 56-74, parallel synthesis array: single test, values adjusted to account for the purity of the sample) [nM]	Structure (SMILES)
267 to 267.5	600	–	O=C(O)c1ccc(C=C2CCc3cc(OCCn4ccnc4)ccc3C2=O)cc1 [Example 12, 4-[6-(2-Imidazole-1-yl-ethoxy)-1-oxo-3,4-dihydro-1H-naphthalen-2-ylidenemethyl]-benzoic acid]
102 to 104	700	–	CSc1ccc(C=C2CCc3cc(OCCn4ccnc4)ccc3C2=O)s1 [Example 19, 6-(2-Imidazole-1-yl-ethoxy)-2-(5-methylsulfanyl-thiophen-2-ylmethylene)-3,4-dihydro-2H-naphthalen-1-one]
69 to 70	490	–	Cc1ccc(C=C2CCc3cc(OCCc4c[nH]cn4)ccc3C2=O)s1 [Example 37, 6-[2-(1H-Imidazole-4-yl)-ethoxy]-2-(5-methyl-thiophen-2-ylmethylene)-3,4-dihydro-2H-naphthalen-1-one]
> 240	370	–	O=C1C(=Cc2ccc([N+](=O)[O-])s2)CCc2cc(OCCn3ccnc3)ccc21 [Example 22, 6-(2-Imidazole-1-yl-ethoxy)-2-(5-nitro-thiophen-2-ylmethylene)-3,4-dihydro-2H-naphthalen-1-one]
116 to 117	1600	–	O=C1C(=Cc2ccoc2)CCc2cc(OCCn3ccnc3)ccc21 [Example 23, 2-Furan-3-ylmethylene-6-(2-imidazole-1-yl-ethoxy)-3,4-dihydro-2H-naphthalen-1-one]
170 to 172	–	–	CC(=C1CCc2cc(OCCc3c[nH]cn3)ccc2C1=O)c1ccccc1 (as salt: HCl) [Example 40, 6-[2-(1H-Imidazole-4-yl)-ethoxy]-2-(1-phenyl-ethylidene)-3,4-dihydro-2H-naphthalen-1-one]
180 to 181	2800	–	O=C1C(=Cc2ccc(-c3cccs3)s2)CCc2cc(OCCn3ccnc3)ccc21 [Example 21, 2-[2,2′]Bithiophenyl-5-ylmethylene-6-(2-imidazole-1-yl-ethoxy)-3,4-dihydro-2H-naphthalen-1-one]
61 to 62	120	–	O=C1C(=Cc2ccsc2)CCc2cc(OCCn3ccnc3)ccc21 [Example 11, 6-(2-Imidazole-1yl-ethoxy)-2-thiophen-3-ylmethylene-3,4-dihydro-2H-naphthalen-1-one]
137 to 138	89	–	O=C1C(=Cc2cccs2)CCc2cc(OCCn3ccnc3)ccc21 [Example 14, 6-(2-Imidazole-1-yl-ethoxy)-2-thiophen-2-ylmethylene-3,4-dihydro-2H-naphthalen-1-one]
135 to 137	3100	–	O=C1C(=Cc2sccc2Oc2ccccc2)CCc2cc(OCCn3ccnc3)ccc21 [Example 20, 6-(2-Imidazole-1-yl-ethoxy)-2-(3-phenoxy-thiophen-2-ylmethylene)-3,4-dihydro-2H-naphthalen-1-one]
160 to 162	230	–	CC(COc1ccc2c(c1)CC/C(=C\c1cccs1)C2=O)n1ccnc1 (stereo not drawn) [Example 79, 6-[2-(1H-1-Imidazolyl)propoxy]-2-[(E)-1-(2-thienyl)methylidene]-1,2,3,4-tetrahydro-1-naphthalenone]
114 to 117	370	–	CSc1ccc(CC2CCc3cc(OCCn4ccnc4)ccc3C2=O)cc1 (stereo not drawn) [Example 10, 6-(2-Imidazole-1yl-ethoxy)-2-(4-methylsulfanyl-benzyl)-3,4-dihydro-2H-naphthalen-1-one]
184 to 185	1700	–	O=C1C(=Cc2ccc([N+](=O)[O-])cc2)CCc2cc(OCCn3ccnc3)ccc21 [Example 7, 6-(2-Imidazole-1-yl-ethoxy)-2-(4-nitro-benzylidene)-3,4-dihydro-2H-naphthalen-1-one]
211 to 213	–	–	O=C1/C(=C/c2cccs2)CNc2cc(OCCn3ccnc3)ccc21 [Example 49, 7-[2-(1H-1-Imidazolyl)ethoxy]-3-[(E)-1-(2-thienyl)methylidene]-1,2,3,4-tetrahydro-4-quinolinone]
–	–	540	O=C1/C(=C/c2c(Cl)cccc2Cl)CCc2cc(OCCn3ccnc3)ccc21 [Example 62, 2-[(E)-1-(2,6-Dichlorophenyl)methylidene]-6-[2-(1H-1-imidazolyl)ethoxy]-1,2,3,4-tetrahydro-1-naphthalenone]
–	420	–	O=C(CON=C1CCCc2cc(OCCn3ccnc3)ccc21)NCC1(c2ccccc2)CCC1 [Example 82, 2-[6-(2-Imidazol-1-yl-ethoxy)-3,4-dihydro-2H-naphthalen-1-ylideneaminooxy]-N-(1-phenyl-cyclobutylmethyl)-acetamide]
